Reference: patent US20240149033A1, “MICRONEEDLE COMPOSITIONS AND METHODS OF DELIVERY USING THE SAME” (The Brigham and Women`s Hospital, Inc., priority 2021, published 2024)

Tested on: THP-1 cells
Assay: Cytotoxicity of TCEP digestion media (LIVE/DEAD stain, flow cytometry)
Format: cell-based
Settings: TCEP 0.1 mM to 100 mM, 10 minutes
Experimental: Cell death was analyzed by flow cytometry after staining using the LIVE/DEAD fixable Violet Dead Cell Stain. Multiple comparisons among groups were determined using one-way ANOVA followed by a post-hoc test. P-value: *p<0.05, **p<0.01.
The ability to induce on-demand digestion of the MNs using a reducing agent (Tris (2-carboxyethil) phosphine, TCEP) was also characterized. […] THP-1 cells were incubated with different concentrations of digestion media (TCEP solution in supplemented media), ranging from 0.1 mM to 100 mM, for 10 minutes. Thereafter, digestion media was removed, and cells were stained using the LIVE/DEAD fixable Violet Dead Cell Stain Kit (ThermoFisher Scientific, USA) following the manufacturer's guidelines. Dead cells were analyzed by flow cytometry using a BD LSRFortessa™ flow cytometer.

## O=C(O)CCP(CCC(=O)O)CCC(=O)O [TCEP, tris(2-carboxyethyl)phosphine]
  cell viability: did not affect cell viability
